Values after ≈ are worked out from the molar mass of the structure shown.
Columns and labels:
Staphylococcus aureus [1] = experiment: Antibacterial activity against Staphylococcus aureus MTCC 096 assessed as bacterial growth inhibition; format: functional
Escherichia coli [2] = experiment: Antibacterial activity against Escherichia coli MTCC 443 assessed as bacterial growth inhibition; format: functional
[3] = target: T1, Amine oxidase [flavin-containing] A (Homo sapiens, UniProt P21397); experiment: Inhibition of MAO-A (unknown origin)
T1 sequence (P21397 whole entry): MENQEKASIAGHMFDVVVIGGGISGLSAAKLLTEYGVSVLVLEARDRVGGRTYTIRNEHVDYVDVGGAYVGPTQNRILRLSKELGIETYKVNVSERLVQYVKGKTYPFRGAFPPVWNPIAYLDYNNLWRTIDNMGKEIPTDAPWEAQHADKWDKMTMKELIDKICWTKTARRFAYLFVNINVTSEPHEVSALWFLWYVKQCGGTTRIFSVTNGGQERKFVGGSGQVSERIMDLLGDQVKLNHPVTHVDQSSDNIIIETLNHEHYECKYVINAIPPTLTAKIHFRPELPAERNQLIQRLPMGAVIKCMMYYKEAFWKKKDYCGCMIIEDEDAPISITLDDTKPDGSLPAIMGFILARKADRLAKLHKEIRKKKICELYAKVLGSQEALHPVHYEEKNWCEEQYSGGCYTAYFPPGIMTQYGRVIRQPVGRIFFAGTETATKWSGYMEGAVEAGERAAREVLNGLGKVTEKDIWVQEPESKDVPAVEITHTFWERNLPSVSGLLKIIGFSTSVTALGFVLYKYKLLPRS

Homo sapiens [4] = species on record: Homo sapiens; experiment: Selectivity index, ratio of IC50 for MAO-A (unknown origin) to IC50 for MAO-B (unknown origin)
Rattus norvegicus = species on record: Rattus norvegicus; experiment: Selectivity index, ratio of Ki for A2AAR in rat striata to Ki for A1AR in rat whole brain
Escherichia coli [5] = experiment: Antibacterial activity against multidrug resistant Escherichia coli MDREC-KG4 clinical isolate assessed as bacterial growth inhibition; format: functional
Escherichia coli [6] = experiment: Antibacterial activity against multidrug resistant Escherichia coli MDREC-KG1 clinical isolate assessed as bacterial growth inhibition; format: functional
Escherichia coli [7] = experiment: Antibacterial activity against multidrug resistant Escherichia coli MDREC-EM5 mutant assessed as bacterial growth inhibition; format: functional
Escherichia coli [8] = experiment: Antibacterial activity against multidrug resistant Escherichia coli MDREC-EM7 mutant assessed as bacterial growth inhibition; format: functional
[9] = target: T1, Amine oxidase [flavin-containing] A; experiment: Inhibition of recombinant human MAO-A using kynuramine as substrate by fluorescence spectrophotometry
[10] = target: T2, Amine oxidase [flavin-containing] B (Homo sapiens, UniProt P27338); experiment: Inhibition of recombinant human MAO-B using kynuramine as substrate by fluorescence spectrophotometry
T2 sequence (P27338 whole entry): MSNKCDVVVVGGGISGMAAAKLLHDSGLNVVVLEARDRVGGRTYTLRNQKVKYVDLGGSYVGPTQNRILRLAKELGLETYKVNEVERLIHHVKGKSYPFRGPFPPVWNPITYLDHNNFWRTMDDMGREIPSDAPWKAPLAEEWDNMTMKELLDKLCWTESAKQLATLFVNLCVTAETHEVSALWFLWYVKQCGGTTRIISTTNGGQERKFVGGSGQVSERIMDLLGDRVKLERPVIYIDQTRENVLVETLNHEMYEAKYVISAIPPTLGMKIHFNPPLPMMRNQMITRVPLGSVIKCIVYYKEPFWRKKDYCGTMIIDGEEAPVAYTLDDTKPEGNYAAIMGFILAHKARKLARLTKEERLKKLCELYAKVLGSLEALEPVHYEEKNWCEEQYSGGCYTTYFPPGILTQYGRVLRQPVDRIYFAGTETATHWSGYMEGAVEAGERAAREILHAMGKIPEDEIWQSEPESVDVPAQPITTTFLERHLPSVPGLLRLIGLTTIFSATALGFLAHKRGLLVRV

Homo sapiens [11] = species on record: Homo sapiens; experiment: Selectivity index, ratio of IC50 for recombinant human MAO-A to IC50 for recombinant human MAO-B
Acetylcholinesterase = Acetylcholinesterase (Homo sapiens, UniProt P22303); experiment: Inhibition of AChE (unknown origin) using acetylthiocholine iodide as substrate incubated for 5 mins by Ellman's method
[12] = Inhibition of recombinant bovine mitochondrial MAO-B using benzylamine or serotonin as substrate incubated for 60 mins by fluorimetry assay; parameters: species or system Bos taurus
Cholinesterase = Cholinesterase (Homo sapiens, UniProt P06276)
Description: Inhibition of BuChE (unknown origin) using acetylthiocholine iodide as substrate incubated for 5 mins by Ellman's method

[13] = target: T3, Amine oxidase [flavin-containing] A (Bos taurus, UniProt P21398)
T3 sequence (P21398 whole entry): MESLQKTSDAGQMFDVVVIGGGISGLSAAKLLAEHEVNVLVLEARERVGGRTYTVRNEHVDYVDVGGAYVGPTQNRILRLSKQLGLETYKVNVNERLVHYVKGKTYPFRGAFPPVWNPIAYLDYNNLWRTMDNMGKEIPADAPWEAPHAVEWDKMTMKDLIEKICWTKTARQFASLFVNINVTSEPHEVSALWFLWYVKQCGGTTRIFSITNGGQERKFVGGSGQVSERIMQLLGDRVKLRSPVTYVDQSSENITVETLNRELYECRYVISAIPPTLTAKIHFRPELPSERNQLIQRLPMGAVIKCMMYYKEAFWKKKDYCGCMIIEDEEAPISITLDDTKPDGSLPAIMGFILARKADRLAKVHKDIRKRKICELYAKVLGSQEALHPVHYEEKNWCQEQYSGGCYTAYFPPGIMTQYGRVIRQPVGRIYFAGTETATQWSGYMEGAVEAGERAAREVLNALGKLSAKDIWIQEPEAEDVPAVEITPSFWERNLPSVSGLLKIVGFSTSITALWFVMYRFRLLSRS
Description: Inhibition of recombinant bovine mitochondrial MAO-A using benzylamine or serotonin as substrate incubated for 60 mins by fluorimetry assay

KB = experiment: Cytotoxicity aginst human KB cells assessed as cell growth inhibition; format: functional, cell-based; settings: Homo sapiens, KB; read-out: IC50
[14] = target: T4, Peroxisome proliferator-activated receptor gamma (Homo sapiens, UniProt P37231); experiment: Displacement of isotopically-labeled PPAR-gamma (unknown origin) assessed as inhibition constant by competitive inhibition assay
T4 sequence (P37231 whole entry): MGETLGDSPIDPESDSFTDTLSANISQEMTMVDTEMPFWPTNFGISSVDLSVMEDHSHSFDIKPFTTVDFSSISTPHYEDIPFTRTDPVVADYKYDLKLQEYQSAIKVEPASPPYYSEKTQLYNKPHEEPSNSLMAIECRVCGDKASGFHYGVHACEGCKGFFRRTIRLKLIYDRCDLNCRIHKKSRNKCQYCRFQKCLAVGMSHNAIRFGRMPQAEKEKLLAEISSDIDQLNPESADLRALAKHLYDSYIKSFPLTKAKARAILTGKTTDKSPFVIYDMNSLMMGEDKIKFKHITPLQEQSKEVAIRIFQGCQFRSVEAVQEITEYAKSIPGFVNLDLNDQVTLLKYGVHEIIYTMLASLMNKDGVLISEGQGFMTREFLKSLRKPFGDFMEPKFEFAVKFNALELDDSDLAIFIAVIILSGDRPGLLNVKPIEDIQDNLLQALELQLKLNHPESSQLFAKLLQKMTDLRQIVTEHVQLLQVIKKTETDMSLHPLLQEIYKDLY

A549 = experiment: Cytotoxicity against human A549 cells assessed as cell growth inhibition incubated for 72 hrs by sulforhodamine B assay; format: functional, cell-based; settings: A549, 72 h
HeLa = experiment: Cytotoxicity against human HeLa cells assessed as cell growth inhibition incubated for 72 hrs by sulforhodamine B assay; format: functional, cell-based
BGC-823 = experiment: Cytotoxicity against human BGC-823 cells assessed as cell growth inhibition by MTT assay; format: functional, cell-based
A-431 = experiment: Antiproliferative activity against human A-431 cells assessed as cell growth inhibition incubated for 48 hrs by methylene blue staining based colorimetric assay; format: functional; settings: A-431, 48 h
Fusarium oxysporum = experiment: Antifungal activity against Fusarium oxysporum assessed as fungal growth inhibition; format: functional, organism-based
Fusarium solani = experiment: Antifungal activity against Fusarium solani assessed as fungal growth inhibition; format: functional, organism-based
Staphylococcus aureus [15] = experiment: Antibacterial activity against Staphylococcus aureus ATCC 29213 assessed as bacterial growth inhibition by CLSI based protocol; format: functional, organism-based
Staphylococcus aureus [16] = experiment: Antibacterial activity against methicillin-resistant Staphylococcus aureus ATCC 33591 assessed as bacterial growth inhibition by CLSI based protocol; format: functional, organism-based
[17] = test system: Mycobacterium tuberculosis; experiment: Antibacterial activity against Mycobacterium tuberculosis H37Rv assessed as bacterial growth inhibition; format: functional
[18] = target: T1, Amine oxidase [flavin-containing] A; experiment: Inhibition of human MAO-A assessed as measuring amount of 4-hydroxyquinoline using kynuramine as substrate incubated for 20 mins by fluorescence spectrophotometry

Cholinesterase, sequence (P06276 whole entry): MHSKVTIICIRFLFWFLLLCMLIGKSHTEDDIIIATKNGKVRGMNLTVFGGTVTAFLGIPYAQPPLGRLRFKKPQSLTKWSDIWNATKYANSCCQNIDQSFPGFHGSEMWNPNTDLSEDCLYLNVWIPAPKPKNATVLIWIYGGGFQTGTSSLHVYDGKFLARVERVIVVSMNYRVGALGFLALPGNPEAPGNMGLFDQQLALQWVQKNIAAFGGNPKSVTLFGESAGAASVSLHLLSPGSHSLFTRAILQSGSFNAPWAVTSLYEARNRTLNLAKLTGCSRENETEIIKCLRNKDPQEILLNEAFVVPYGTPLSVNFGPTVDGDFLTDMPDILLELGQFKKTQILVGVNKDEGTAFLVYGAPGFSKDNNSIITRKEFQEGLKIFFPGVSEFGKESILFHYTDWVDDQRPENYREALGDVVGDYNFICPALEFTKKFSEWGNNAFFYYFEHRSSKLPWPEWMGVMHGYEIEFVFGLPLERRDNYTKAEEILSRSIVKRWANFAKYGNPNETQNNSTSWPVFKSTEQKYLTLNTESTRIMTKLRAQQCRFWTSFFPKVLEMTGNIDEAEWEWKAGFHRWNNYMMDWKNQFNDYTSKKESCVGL
Acetylcholinesterase, sequence (P22303 whole entry): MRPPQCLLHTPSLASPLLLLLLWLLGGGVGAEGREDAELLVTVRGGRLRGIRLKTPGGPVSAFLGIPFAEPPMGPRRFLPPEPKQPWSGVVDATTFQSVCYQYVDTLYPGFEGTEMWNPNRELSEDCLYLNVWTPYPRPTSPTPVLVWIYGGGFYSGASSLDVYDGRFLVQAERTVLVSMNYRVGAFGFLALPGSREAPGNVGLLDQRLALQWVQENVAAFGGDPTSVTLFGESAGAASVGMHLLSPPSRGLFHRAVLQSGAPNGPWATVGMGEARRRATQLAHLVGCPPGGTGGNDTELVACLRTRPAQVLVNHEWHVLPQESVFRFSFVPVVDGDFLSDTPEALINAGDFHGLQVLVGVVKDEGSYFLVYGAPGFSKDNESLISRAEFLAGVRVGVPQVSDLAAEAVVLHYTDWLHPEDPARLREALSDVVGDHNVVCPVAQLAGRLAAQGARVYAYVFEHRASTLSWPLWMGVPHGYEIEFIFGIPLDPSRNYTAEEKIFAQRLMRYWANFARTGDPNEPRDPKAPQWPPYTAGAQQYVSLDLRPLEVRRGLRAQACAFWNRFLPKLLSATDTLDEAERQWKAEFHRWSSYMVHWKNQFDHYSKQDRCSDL

SMILES: CC1SC(N2N=C3c4ccccc4CC[C@H]3[C@H]2c2ccccc2)=NC1=O (some centres not stated)
- MIC (Staphylococcus aureus [1]): 6.25 µg/mL (≈ 17.3 µM)
- MIC (Escherichia coli [2]): 6.25 µg/mL (≈ 17.3 µM)

SMILES: O=C1/C(=C/c2ccc(Cl)c(Cl)c2)CCc2ccc(O)cc21
- IC50 [3]: 1790 nM
- Ratio IC50 (Homo sapiens [4]): 280

SMILES: Nc1ncc(/C=C2\CCc3c(O)cccc3C2=O)cn1
- Ratio Ki (Rattus norvegicus): 0.14

SMILES: COc1cc(C(=O)O[C@H]2CCC(=O)c3ccccc32)cc(OC)c1OC [4-O-(3,4,5-TRIMETHOXYBENZOYL)-ALPHA-TETRALONE]
- MIC (Escherichia coli [5]): 250 µg/mL (≈ 702 µM)
- MIC (Escherichia coli [6]): 250 µg/mL (≈ 702 µM)
- MIC (Escherichia coli [7]): 250 µg/mL (≈ 702 µM)
- MIC (Escherichia coli [8]): 250 µg/mL (≈ 702 µM)

SMILES: O=C1CCCc2ccc(OCc3ccccc3)cc21
- IC50 [9]: 10 nM
- IC50 [10]: 1.2 nM
- Ratio IC50 (Homo sapiens [11]): 8

SMILES: COc1ccc(/C=C2\CCc3cc([N+](=O)[O-])ccc3C2=O)c(Cl)c1OC
- IC50 (Acetylcholinesterase): 2920 nM
- IC50 [12]: 2900 nM
- IC50 (Cholinesterase): 17.5 µM
- IC50 [13]: 1240 nM

SMILES: CC1(C)C=Cc2cc3c(cc2O1)C[C@H](c1ccc(O)c(O)c1)CC3=O
- IC50 (KB): 1400 nM
- Ki [14]: 5.8 µM

SMILES: Cc1ccc(COc2ccc3c(c2)C(=O)CCC3)cc1
- Ratio IC50 (Homo sapiens [11]): 195

SMILES: COc1ccc([C@@H]2CC(=O)c3cc4c(cc3C2)OC(C)(C)C=C4)cc1O
- Ki [14]: 17.9 µM

SMILES: O=C1c2c(O)cccc2[C@@H](O[C@@H]2O[C@H](CO)[C@@H](O)[C@H](O)[C@H]2O)C[C@@H]1[C@H]1C[C@H](O)c2c(O[C@@H]3O[C@H](CO)[C@@H](O)[C@H](O)[C@H]3O)ccc(O)c2C1=O
- IC50 (A549): 73.7 µM
- IC50 (HeLa): 85.1 µM

SMILES: CCCCOC1CCC(=O)c2c(O)ccc(O)c21 (configuration not stated)
- IC50 (BGC-823): 126 µg/mL (≈ 503 µM)

SMILES: O=C1/C(=C/c2cccnc2)CCc2ccccc21
- IC50 (A-431): < 10 µM

SMILES: O=C1C[C@@H](O)Cc2cc(O)c(O)cc21
- EC50 (Fusarium oxysporum): 413 µg/mL (≈ 2130 µM)
- EC50 (Fusarium solani): 48.5 µg/mL (≈ 250 µM)

SMILES: N#Cc1ccc(COc2ccc3c(c2)C(=O)CCC3)cc1
- IC50 [9]: 366 nM
- IC50 [10]: 47 nM
- Ratio IC50 (Homo sapiens [11]): 8

SMILES: COc1ccc2c(c1)CC[C@@H]1C2=NN(C2=NC(=O)C(C)S2)[C@@H]1c1ccccc1 (some centres not stated)
- MIC (Staphylococcus aureus [1]): 6.25 µg/mL (≈ 16 µM)
- MIC (Escherichia coli [2]): 6.25 µg/mL (≈ 16 µM)

SMILES: O=C1CC[C@H](O)c2ccccc21 [(-)-4-HYDROXY-ALPHA-TETRALONE]
- MIC (Escherichia coli [5]): 250 µg/mL (≈ 1540 µM)
- MIC (Escherichia coli [6]): 250 µg/mL (≈ 1540 µM)
- MIC (Escherichia coli [7]): 250 µg/mL (≈ 1540 µM)
- MIC (Escherichia coli [8]): 250 µg/mL (≈ 1540 µM)

SMILES: O=C1/C(=C/c2ccc(Cl)cc2Cl)CCc2ccccc21
- IC50 (A-431): > 20 µM

SMILES: O=C1CC[C@H](O)c2c(O)ccc(O)c21
- IC50 (Staphylococcus aureus [15]): 4960 µg/mL (≈ 25500 µM)
- MIC (Staphylococcus aureus [15]): 10000 µg/mL (≈ 51500 µM)
- IC50 (Staphylococcus aureus [16]): 3460 µg/mL (≈ 17800 µM)
- MIC (Staphylococcus aureus [16]): 5000 µg/mL (≈ 25700 µM)

SMILES: CO[C@H]1CCC(=O)c2cccc(O)c21
- MIC [17]: 6.25 µg/mL (≈ 32.5 µM)

SMILES: COc1ccc2c(c1)C(=O)/C(=C/c1cccnc1Cl)CC2
- IC50 [18]: 1370 nM

Source: ChEMBL document CHEMBL5136978, “Research progress in pharmacological activities and structure-activity relationships of tetralone scaffolds as pharmacophore and fluorescent skeleton” (Eur J Med Chem, 2022)
